pIC50: −log10 of the molar value. Where two headings read alike, the source gives them in different places. Peptide text beside a SMILES is read from it. * marks the point of attachment. C16 diacid = O=C(O)CCCCCCCCCCCCCCC(=O)*
Experiments:
[1] = biological target: T1, human GIP receptor (Homo sapiens, UniProt P48546); experiment: cAMP accumulation assay, agonism (ligand alone); format: cell-based; conditions: COS-7 cells, Table 1; for EC50: read-out: cAMP agonism nM (EC50); for cAMP agonism Emax: intrinsic cAMP activity; for Emax: COS-7, intrinsic cAMP activity
T1 construct: host or cells: COS-7, transient transfection (calcium phosphate), cDNA in pCMV-Script
T1 sequence (P48546 22-466): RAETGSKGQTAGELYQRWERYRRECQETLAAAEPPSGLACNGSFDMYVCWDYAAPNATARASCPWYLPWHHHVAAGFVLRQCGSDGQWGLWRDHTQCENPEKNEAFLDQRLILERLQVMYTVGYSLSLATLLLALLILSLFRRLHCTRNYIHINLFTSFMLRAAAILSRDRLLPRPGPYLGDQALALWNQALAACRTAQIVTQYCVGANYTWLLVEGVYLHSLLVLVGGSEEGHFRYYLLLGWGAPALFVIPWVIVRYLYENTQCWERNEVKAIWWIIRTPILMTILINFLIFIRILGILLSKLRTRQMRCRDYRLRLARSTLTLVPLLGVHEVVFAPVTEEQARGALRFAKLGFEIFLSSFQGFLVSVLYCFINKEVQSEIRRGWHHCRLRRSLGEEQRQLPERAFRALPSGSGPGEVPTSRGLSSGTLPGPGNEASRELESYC

[2] = biological target: T1, human GIP receptor; experiment: 125I-human GIP competition binding assay, in the presence and absence of 2% HSA; conditions: for Binding fold (paired): fold decrease in affinity compared to GIP(3-30)NH2;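 as to all read-outs here: nonspecific binding taken as radioligand bound to untransfected cells, IC50 obtained from nonlinear regression fits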
[3] = Table 3b, initial data, read-out: Binding IC50
[4] = heterologous competition binding, transiently transfected COS-7 cells expressing the human GIP receptor, read-out: Binding

Row | SMILES | EC50 [1] [nM] | cAMP agonism Emax [1] [%] | pIC50 [2, 3] | Binding fold (paired) ([2]; Table 3b) [fold] | pIC50 [2, 4] | Emax [1] [%]
1 | CCCCCCCCCCCC(=O)N[C@@H](CCC(=O)O)C(=O)NCC(=O)N[C@H](C(=O)N[C@@H](Cc1ccccc1)C(=O)N[C@H](C(=O)N[C@@H](CO)C(=O)N[C@@H](CC(=O)O)C(=O)N[C@@H](Cc1ccc(O)cc1)C(=O)N[C@@H](CO)C(=O)N[C@H](C(=O)N[C@@H](C)C(=O)N[C@@H](CCSC)C(=O)N[C@@H](CC(=O)O)C(=O)N[C@@H](CCCCN)C(=O)N[C@H](C(=O)N[C@@H](Cc1c[nH]cn1)C(=O)N[C@@H](CCC(N)=O)C(=O)N[C@@H](CCC(N)=O)C(=O)N[C@@H](CC(=O)O)C(=O)N[C@@H](Cc1ccccc1)C(=O)N[C@H](C(=O)N[C@@H](CC(N)=O)C(=O)N[C@@H](Cc1c[nH]c2ccccc12)C(=O)N[C@@H](CC(C)C)C(=O)N[C@@H](CC(C)C)C(=O)N[C@@H](C)C(=O)N[C@@H](CCC(N)=O)C(=O)N[C@@H](CCCCN)C(N)=O)C(C)C)[C@@H](C)CC)[C@@H](C)CC)[C@@H](C)CC)[C@@H](C)O [AT101, [hGIP(3-30)NH2—C12/3]] | 0.7 | 62 | 8.00 | 0.7 | 8.00 | –
2 | CCCCCCCCCCCC(=O)NCCCC[C@H](NC(=O)[C@H](CC(=O)O)NC(=O)[C@H](CCSC)NC(=O)[C@H](C)NC(=O)[C@@H](NC(=O)[C@H](CO)NC(=O)[C@H](Cc1ccc(O)cc1)NC(=O)[C@H](CC(=O)O)NC(=O)[C@H](CO)NC(=O)[C@@H](NC(=O)[C@H](Cc1ccccc1)NC(=O)[C@@H](NC(=O)CNC(=O)[C@@H](N)CCC(=O)O)[C@@H](C)O)[C@@H](C)CC)[C@@H](C)CC)C(=O)N[C@H](C(=O)N[C@@H](Cc1c[nH]cn1)C(=O)N[C@@H](CCC(N)=O)C(=O)N[C@@H](CCC(N)=O)C(=O)N[C@@H](CC(=O)O)C(=O)N[C@@H](Cc1ccccc1)C(=O)N[C@H](C(=O)N[C@@H](CC(N)=O)C(=O)N[C@@H](Cc1c[nH]c2ccccc12)C(=O)N[C@@H](CC(C)C)C(=O)N[C@@H](CC(C)C)C(=O)N[C@@H](C)C(=O)N[C@@H](CCC(N)=O)C(=O)N[C@@H](CCCCN)C(N)=O)C(C)C)[C@@H](C)CC [AT102, [hGIP(3-30)NH2—C12/16]] | 0.7 | 66 | 7.23 | 6.1 | 7.23 | –
3 | CCCCCCCCCCCCCCCC(=O)N[C@@H](CCC(=O)O)C(=O)NCC(=O)N[C@H](C(=O)N[C@@H](Cc1ccccc1)C(=O)N[C@H](C(=O)N[C@@H](CO)C(=O)N[C@@H](CC(=O)O)C(=O)N[C@@H](Cc1ccc(O)cc1)C(=O)N[C@@H](CO)C(=O)N[C@H](C(=O)N[C@@H](C)C(=O)N[C@@H](CCSC)C(=O)N[C@@H](CC(=O)O)C(=O)N[C@@H](CCCCN)C(=O)N[C@H](C(=O)N[C@@H](Cc1c[nH]cn1)C(=O)N[C@@H](CCC(N)=O)C(=O)N[C@@H](CCC(N)=O)C(=O)N[C@@H](CC(=O)O)C(=O)N[C@@H](Cc1ccccc1)C(=O)N[C@H](C(=O)N[C@@H](CC(N)=O)C(=O)N[C@@H](Cc1c[nH]c2ccccc12)C(=O)N[C@@H](CC(C)C)C(=O)N[C@@H](CC(C)C)C(=O)N[C@@H](C)C(=O)N[C@@H](CCC(N)=O)C(=O)N[C@@H](CCCCN)C(N)=O)C(C)C)[C@@H](C)CC)[C@@H](C)CC)[C@@H](C)CC)[C@@H](C)O [AT104, [hGIP(3-30)NH2—C16/3]] | – | – | 7.12 | 4.9 | 7.12 | 81
4 | CCCCCCCCCCCCCCCC(=O)NCCCC[C@H](NC(=O)[C@H](CC(=O)O)NC(=O)[C@H](CCSC)NC(=O)[C@H](C)NC(=O)[C@@H](NC(=O)[C@H](CO)NC(=O)[C@H](Cc1ccc(O)cc1)NC(=O)[C@H](CC(=O)O)NC(=O)[C@H](CO)NC(=O)[C@@H](NC(=O)[C@H](Cc1ccccc1)NC(=O)[C@@H](NC(=O)CNC(=O)[C@@H](N)CCC(=O)O)[C@@H](C)O)[C@@H](C)CC)[C@@H](C)CC)C(=O)N[C@H](C(=O)N[C@@H](Cc1c[nH]cn1)C(=O)N[C@@H](CCC(N)=O)C(=O)N[C@@H](CCC(N)=O)C(=O)N[C@@H](CC(=O)O)C(=O)N[C@@H](Cc1ccccc1)C(=O)N[C@H](C(=O)N[C@@H](CC(N)=O)C(=O)N[C@@H](Cc1c[nH]c2ccccc12)C(=O)N[C@@H](CC(C)C)C(=O)N[C@@H](CC(C)C)C(=O)N[C@@H](C)C(=O)N[C@@H](CCC(N)=O)C(=O)N[C@@H](CCCCN)C(N)=O)C(C)C)[C@@H](C)CC [AT105, [hGIP(3-30)NH2—C16/16]] | – | – | 6.28 | – | 6.28 | 34
5 | CC[C@H](C)[C@H](NC(=O)[C@H](CO)NC(=O)[C@H](Cc1ccc(O)cc1)NC(=O)[C@H](CC(=O)O)NC(=O)[C@H](CO)NC(=O)[C@@H](NC(=O)[C@H](Cc1ccccc1)NC(=O)[C@@H](NC(=O)CNC(=O)[C@@H](N)CCC(=O)O)[C@@H](C)O)[C@@H](C)CC)C(=O)N[C@@H](C)C(=O)N[C@@H](CCSC)C(=O)N[C@@H](CC(=O)O)C(=O)N[C@@H](CCCCN)C(=O)N[C@H](C(=O)N[C@@H](Cc1c[nH]cn1)C(=O)N[C@@H](CCC(N)=O)C(=O)N[C@@H](CCC(N)=O)C(=O)N[C@@H](CC(=O)O)C(=O)N[C@@H](Cc1ccccc1)C(=O)N[C@H](C(=O)N[C@@H](CC(N)=O)C(=O)N[C@@H](Cc1c[nH]c2ccccc12)C(=O)N[C@@H](CC(C)C)C(=O)N[C@@H](CCCCNC(=O)CCCCCCCCCCCCCCC(=O)O)C(=O)N[C@@H](C)C(=O)N[C@@H](CCC(N)=O)C(=O)N[C@@H](CCCCN)C(N)=O)C(C)C)[C@@H](C)CC [AT316, [hGIP(3-30)NH2[L27K]-C16diacid/27]] (H-EGTFISDYSIAMDKIHQQDFVNWLK(C16 diacid)AQK-NH2; N-terminus assumed) | – | – | – | – | – | 6.2
6 | CC[C@H](C)[C@H](NC(=O)[C@H](CO)NC(=O)[C@H](Cc1ccc(O)cc1)NC(=O)[C@H](CC(=O)O)NC(=O)[C@H](CO)NC(=O)[C@@H](NC(=O)[C@H](Cc1ccccc1)NC(=O)[C@@H](NC(=O)CNC(=O)[C@@H](N)CCC(=O)O)[C@@H](C)O)[C@@H](C)CC)C(=O)N[C@@H](C)C(=O)N[C@@H](CCSC)C(=O)N[C@@H](CC(=O)O)C(=O)N[C@@H](CCCCN)C(=O)N[C@H](C(=O)N[C@@H](Cc1c[nH]cn1)C(=O)N[C@@H](CCC(N)=O)C(=O)N[C@@H](CCC(N)=O)C(=O)N[C@@H](CC(=O)O)C(=O)N[C@@H](Cc1ccccc1)C(=O)N[C@H](C(=O)N[C@@H](CC(N)=O)C(=O)N[C@@H](Cc1c[nH]c2ccccc12)C(=O)N[C@@H](CC(C)C)C(=O)N[C@@H](CC(C)C)C(=O)N[C@@H](CCCCNC(=O)CCCCCCCCCCCCCCC(=O)O)C(=O)N[C@@H](CCC(N)=O)C(=O)N[C@@H](CCCCN)C(N)=O)C(C)C)[C@@H](C)CC [AT317, [hGIP(3-30)NH2[A28K]-C16diacid/28]] (H-EGTFISDYSIAMDKIHQQDFVNWLLK(C16 diacid)QK-NH2; N-terminus assumed) | 62 | – | – | – | – | 21.8
7 | CC[C@H](C)[C@H](NC(=O)[C@H](CO)NC(=O)[C@H](Cc1ccc(O)cc1)NC(=O)[C@H](CC(=O)O)NC(=O)[C@H](CO)NC(=O)[C@@H](NC(=O)[C@H](Cc1ccccc1)NC(=O)[C@@H](N)[C@@H](C)O)[C@@H](C)CC)C(=O)N[C@@H](C)C(=O)N[C@@H](CCSC)C(=O)N[C@@H](CC(=O)O)C(=O)N[C@@H](CCCCN)C(=O)N[C@H](C(=O)N[C@@H](Cc1c[nH]cn1)C(=O)N[C@@H](CCC(N)=O)C(=O)N[C@@H](CCC(N)=O)C(=O)N[C@@H](CC(=O)O)C(=O)N[C@@H](Cc1ccccc1)C(=O)N[C@H](C(=O)N[C@@H](CC(N)=O)C(=O)N[C@@H](Cc1c[nH]c2ccccc12)C(=O)N[C@@H](CC(C)C)C(=O)N[C@@H](CC(C)C)C(=O)N[C@@H](C)C(=O)N[C@@H](CCC(N)=O)C(=O)N[C@@H](CCCCNC(=O)CCCCCCCCCCCCCCC(=O)O)C(N)=O)C(C)C)[C@@H](C)CC [AT372, [hGIP(5-30)NH2[Q30K]-C16diacid/30]] | – | – | – | – | – | 6
